We go through 17 compounds from patent publication US20170334899A1, “AMINO-SUBSTITUTED ISOTHIAZOLES” (Bayer Pharma Aktiengesellschaft, priority 2014, published 2017).

Experiment [1] relates to human cervical tumor cell line HeLa (ATCC CCL-2). Put plainly: SAC-Formation - Nocodazole-Induced Assay. The class given is cell-based. As to conditions: Homo sapiens, HeLa, 24 h, HeLa cells, nocodazole 0.1 μg/ml together with test compound, decrease of mitotic cells (phospho-histone H3 Ser10). The gist of the method: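 Loss of phospho-histone H3 Ser10-positive cells, counted against Hoechst-stained nuclei by high-content imaging, marked mitotic breakthrough. Compounds (0.005–20 μM, 0.5% DMSO) were co-dosed with 0.1 μg/ml nocodazole onto HeLa cells for 24 h at 37 °C. Curves were fitted with a four-parameter Hill equation.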

Experiment [2] concerns the target T1, catalytic domain of human Bub1 (amino acids 704-1085) (Homo sapiens, UniProt O43683).
T1 construct: catalytic domain of human Bub1 (amino acids 704-1085); His6 (N); made in house; host or cells: insect cells (Hi5)
Put plainly: Bub1 kinase assay (TR-FRET). As to conditions: 10 μM ATP, avg, read-out: Bub1 avg (IC50 [mol/l]). It counts as biochemical. The text has this: Bub1-inhibitory activity of compounds of the present invention was quantified employing the Bub1 TR-FRET assay as described in the following paragraphs.
N-terminally His6-tagged recombinant catalytic domain of human Bub1 (amino acids 704-1085), expressed in insect cells (Hi5) and purified by Ni-NTA affinity chromatography and subsequent size exclusion chromatography, was used as enzyme. As substrate for the kinase reaction the biotinylated peptide biotin-Ahx-VLLPKKSFAEPG (C-terminus in amid form) was used which can be purchased e.g. form the company Biosyntan (Berlin, Germany).
For the assay 50 nl of a 100fold concentrated solution of the test compound in DMSO was pipetted into a black low volume 384well microtiter plate (Greiner Bio-One, Frickenhausen, Germany), 2 μl of a solution of Bub1 in aqueous assay buffer [50 mM Tris/HCl pH 7.5, 10 mM magnesium chloride (MgCl2), 200 mM potassium chloride (KCl), 1.0 mM dithiothreitol (DTT), 0.1 mM sodium ortho-vanadate, 1% (v/v) glycerol, 0.01% (w/v) bovine serum albumine (BSA), 0.005% (v/v) Trition X-100 (Sigma), 1× Complete EDTA-free protease inhibitor mixture (Roche)] were added and the mixture was incubated for 15 min at 22° C. to allow pre-binding of the test compounds to the enzyme before the start of the kinase reaction. Then the kinase reaction was started by the addition of 3 μl of a solution of adenosine-tri-phosphate (ATP, 16.7 μM=>final conc. in the 5 μl assay volume is 10 μM) and substrate (1.67 μM=>final conc. in the 5 μl assay volume is 1 μM) in assay buffer and the resulting mixture was incubated for a reaction time of 60 min at 22° C. The concentration of Bub1 was adjusted depending of the activity of the enzyme lot and was chosen appropriate to have the assay in the linear range, typical concentrations were in the range of 200 ng/ml. The reaction was stopped by the addition of 5 μl of a solution of TR-FRET detection reagents (0.2 μM streptavidine-XL665 [Cisbio Bioassays, Codolet, France] and 1 nM anti-phosho-Serine antibody [Merck Millipore, cat. #35-001] and 0.4 nM LANCE EU-W1024 labeled anti-mouse IgG antibody [Perkin-Elmer, product no. AD0077, as an alternative a Terbium-cryptate-labeled anti-mouse IgG antibody from Cisbio Bioassays can be used]) in an aqueous EDTA-solution (50 mM EDTA, 0.2% (w/v) bovine serum albumin in 100 mM HEPES pH 7.5).
The resulting mixture was incubated 1 h at 22° C. to allow the formation of complex between the phosphorylated biotinylated peptide and the detection reagents. Subsequently the amount of phosphorylated substrate was evaluated by measurement of the resonance energy transfer from the Eu-chelate to the streptavidine-XL. Therefore, the fluorescence emissions at 620 nm and 665 nm after excitation at 350 nm was measured in a TR-FRET reader, e.g. a Rubystar or Pherastar (both from BMG Labtechnologies, Offenburg, Germany) or a Viewlux (Perkin-Elmer). The ratio of the emissions at 665 nm and at […] was taken as the measure for the amount of phosphorylated substrate. The data were normalised (enzyme reaction without inhibitor=0% inhibition, all other assay components but no enzyme=100% inhibition).
(In general: TR-FRET usually uses a lanthanide donor and a delayed reading to cut background.)

T1 sequence (O43683 704-1085): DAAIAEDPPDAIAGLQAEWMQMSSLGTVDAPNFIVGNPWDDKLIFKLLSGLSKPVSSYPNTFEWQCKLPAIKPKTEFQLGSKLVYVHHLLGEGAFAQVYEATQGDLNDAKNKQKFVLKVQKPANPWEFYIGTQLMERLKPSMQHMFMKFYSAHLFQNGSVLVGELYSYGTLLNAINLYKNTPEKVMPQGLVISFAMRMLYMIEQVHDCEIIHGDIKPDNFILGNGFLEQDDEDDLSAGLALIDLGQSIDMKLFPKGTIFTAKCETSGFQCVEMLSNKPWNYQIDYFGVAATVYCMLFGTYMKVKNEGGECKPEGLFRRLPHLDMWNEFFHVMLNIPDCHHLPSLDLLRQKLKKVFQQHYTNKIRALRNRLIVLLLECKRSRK

Take `Cc1nsc(Nc2cc(C#N)ccn2)c1C(=O)Nc1ccc(Oc2cccnc2)nc1` [Example 119, 5-[(4-Cyanopyridin-2-yl)amino]-3-methyl-N-[6-(pyridin-3-yloxy)pyridin-3-yl]-1,2-thiazole-4-carboxamide]: the figures for the IC50 in experiment [1] and in experiment [2] were 4500 nM and not below 20000 nM, respectively.
In the same order, the values of `Cc1nsc(Nc2cnc(C(F)(F)F)cn2)c1C(=O)Nc1ccc(OCC2CCN(CCF)C2)nc1` (stereo not shown) [Example 121, N-(6-{[1-(2-fluoroethyl)pyrrolidin-3-yl]methoxy}pyridin-3-yl)-3-methyl-5-{[5-(trifluoromethyl)pyrazin-2-yl]amino}-1,2-thiazole-4-carboxamide] are 340 nM and not below 20000 nM.
For `Cc1nsc(Nc2cnc(C(F)(F)F)cn2)c1C(=O)Nc1ccc(OCC2CCN(CC(F)F)C2)nc1` (stereo not shown) [Example 122, N-(6-{[1-(2,2-difluoroethyl)pyrrolidin-3-yl]methoxy}pyridin-3-yl)-3-methyl-5-{[5-(trifluoromethyl)pyrazin-2-yl]amino}-1,2-thiazole-4-carboxamide] the same measures were 39 nM and not below 20000 nM.
In the same order, the values of `Cc1nsc(Nc2cnc(C(F)(F)F)cn2)c1C(=O)Nc1ccc(OCC2CCN(CC(F)(F)F)C2)nc1` (stereo not shown) [Example 123, 3-Methyl-N-(6-{[1-(2,2,2-trifluoroethyl)pyrrolidin-3-yl]methoxy}pyridin-3-yl)-5-{[5-(trifluoromethyl)pyrazin-2-yl]amino}-1,2-thiazole-4-carboxamide] are 12 nM and not below 20000 nM.
Turning to `Cc1nsc(Nc2cnc(C(F)(F)F)cn2)c1C(=O)Nc1ccc(OCC2CCN(CCC(F)(F)F)C2)nc1` (stereo not shown) [Example 124, 3-methyl-5-{[5-(trifluoromethyl)pyrazin-2-yl]amino}-N-(6-{[1-(3,3,3-trifluoropropyl)pyrrolidin-3-yl]methoxy}pyridin-3-yl)-1,2-thiazole-4-carboxamide], the IC50 in experiment [1] was 24 nM; in experiment [2], not below 20000 nM.
For `Cc1nsc(Nc2cnc(C(F)(F)F)cn2)c1C(=O)Nc1ccc(OC[C@@H]2CCN(CC(F)F)C2)nc1` [Example 127, N-(6-{[(3R)-1-(2,2-difluoroethyl)pyrrolidin-3-yl]methoxy}pyridin-3-yl)-3-methyl-5-{[5-(trifluoromethyl)pyrazin-2-yl]amino}-1,2-thiazole-4-carboxamide] the same measures were 53 nM and not below 20000 nM.
For `Cc1nsc(Nc2cnc(C(F)(F)F)cn2)c1C(=O)Nc1ccc(OC[C@@H]2CCN(CC(F)(F)F)C2)nc1` [Example 128, 3-Methyl-N-(6-{[(3R)-1-(2,2,2-trifluoroethyl)pyrrolidin-3-yl]methoxy}pyridin-3-yl)-5-{[5-(trifluoromethyl)pyrazin-2-yl]amino}-1,2-thiazole-4-carboxamide] the same measures were 15 nM and more than 20000 nM.
In the same order, the values of `Cc1nsc(Nc2cnc(C(F)(F)F)cn2)c1C(=O)Nc1ccc(OC[C@@H]2CCN(CCC(F)(F)F)C2)nc1` [Example 129, 3-Methyl-5-{[5-(trifluoromethyl)pyrazin-2-yl]amino}-N-(6-{[(3R)-1-(3,3,3-trifluoropropyl)pyrrolidin-3-yl]methoxy}pyridin-3-yl)-1,2-thiazole-4-carboxamide] are 32 nM and more than 20000 nM.
For the compound `Cc1nsc(Nc2cnc(C(F)(F)F)cn2)c1C(=O)Nc1ccc(OC[C@H]2CCN(CC(F)F)C2)nc1` [Example 132, N-(6-{[(3S)-1-(2,2-difluoroethyl)pyrrolidin-3-yl]methoxy}pyridin-3-yl)-3-methyl-5-{[5-(trifluoromethyl)pyrazin-2-yl]amino}-1,2-thiazole-4-carboxamide], the IC50 is 27 nM in experiment [1] and more than 20000 nM in experiment [2].
For `Cc1nsc(Nc2cnc(C(F)(F)F)cn2)c1C(=O)Nc1ccc(OC[C@H]2CCN(CCC(F)(F)F)C2)nc1` [Example 134, 3-Methyl-5-{[5-(trifluoromethyl)pyrazin-2-yl]amino}-N-(6-{[(3S)-1-(3,3,3-trifluoropropyl)pyrrolidin-3-yl]methoxy}pyridin-3-yl)-1,2-thiazole-4-carboxamide] the same measures were 36 nM and more than 20000 nM.
In the same order, the values of `Cc1nsc(Nc2cnc(C(F)(F)F)cn2)c1C(=O)Nc1ccc(O[C@@H]2CCN(CC(F)F)C[C@@H]2F)nc1` [Example 137, N-(6-{[(3S,4R)-1-(2,2-difluoroethyl)-3-fluoropiperidin-4-yl]oxy}pyridin-3-yl)-3-methyl-5-{[5-(trifluoromethyl)pyrazin-2-yl]amino}-1,2-thiazole-4-carboxamide] are 34 nM and more than 20000 nM.
Turning to `Cc1nsc(Nc2cnc(C(F)(F)F)cn2)c1C(=O)Nc1ccc(O[C@@H]2CCN(CC(F)(F)F)C[C@@H]2F)nc1` [Example 138, N-(6-{[(3S,4R)-3-fluoro-1-(2,2,2-trifluoroethyl)piperidin-4-yl]oxy}pyridin-3-yl)-3-methyl-5-{[5-(trifluoromethyl)pyrazin-2-yl]amino}-1,2-thiazole-4-carboxamide], the results for the IC50 in experiment [1] and in experiment [2] were 110 nM and more than 20000 nM, respectively.
In the same order, the values of `Cc1nsc(Nc2cnc(C(F)(F)F)cn2)c1C(=O)Nc1ccc(O[C@@H]2CCN(CCC(F)(F)F)C[C@@H]2F)nc1` [Example 139, N-(6-{[(3S,4R)-3-fluoro-1-(3,3,3-trifluoropropyl)piperidin-4-yl]oxy}pyridin-3-yl)-3-methyl-5-{[5-(trifluoromethyl)pyrazin-2-yl]amino}-1,2-thiazole-4-carboxamide] are 16 nM and more than 20000 nM.
For `CCCN1CC[C@@H](Oc2ccc(NC(=O)c3c(C)nsc3Nc3cnc(C(F)(F)F)cn3)cn2)[C@@H](F)C1` [Example 140, N-(6-{[(3S,4R)-3-fluoro-1-propylpiperidin-4-yl]oxy}pyridin-3-yl)-3-methyl-5-{[5-(trifluoromethyl)pyrazin-2-yl]amino}-1,2-thiazole-4-carboxamide] the same measures were 60 nM and more than 20000 nM.
In the same order, the values of `CCCCN1CC[C@@H](Oc2ccc(NC(=O)c3c(C)nsc3Nc3cnc(C(F)(F)F)cn3)cn2)[C@@H](F)C1` [Example 141, N-(6-{[(3S,4R)-1-butyl-3-fluoropiperidin-4-yl]oxy}pyridin-3-yl)-3-methyl-5-{[5-(trifluoromethyl)pyrazin-2-yl]amino}-1,2-thiazole-4-carboxamide] are 36 nM and not below 20000 nM.
Regarding `Cc1nsc(Nc2cnc(C(F)(F)F)cn2)c1C(=O)Nc1ccc(O[C@H]2CCN(CC(F)F)C[C@H]2F)nc1` [Example 144, N-(6-{[(3R,4S)-1-(2,2-difluoroethyl)-3-fluoropiperidin-4-yl]oxy}pyridin-3-yl)-3-methyl-5-{[5-(trifluoromethyl)pyrazin-2-yl]amino}-1,2-thiazole-4-carboxamide], the IC50 was 36 nM in experiment [1] and more than 20000 nM in experiment [2].
For `Cc1nsc(Nc2cnc(C(F)(F)F)cn2)c1C(=O)Nc1ccc(O[C@H]2CCN(CC(F)(F)F)C[C@H]2F)nc1` [Example 145, N-(6-{[(3R,4S)-3-fluoro-1-(2,2,2-trifluoroethyl)piperidin-4-yl]oxy}pyridin-3-yl)-3-methyl-5-{[5-(trifluoromethyl)pyrazin-2-yl]amino}-1,2-thiazole-4-carboxamide] the same measures were 13 nM and more than 20000 nM.
